Results on 8 compounds are retold here after paper PMC6946680, “Modulation of brain cation-Cl^− cotransport via the SPAK kinase inhibitor ZT-1a” (Nature Communications, 2020).

Assay [1] concerns T1, SPAK–WNK1 interaction.
T1 construct: endogenous in cells; host or cells: HEK-293
Put plainly: SPAK antibody pull-down / co-immunoprecipitation of WNK1 from HEK-293 cell lysates. Format: binding, human. To be noted: Fig S6. As to the method: Supplemental Fig. 6 Evidence that SPAK associates with WNK1, and interaction is disrupted by ZT-1a and its analogs. Non-transfected HEK293 cell lysates were incubated with the RFQV peptide […]
ZT-1a for 30 min on ice and subjected to SPAK antibody immunoprecipitation. Immunoprecipitates were subjected to immunoblot probed with antibody to total WNK1 and antibody to total SPAK. Left panels: representative immunoblots. Right panels, summarized data quantitated by densitometry (n=3, means ± SEM; **,

In assay [2] the test system is SPAK pSer373. Put plainly: Immunoblot of SPAK/OSR1 p-Ser373/Ser325 in HEK-293 cells. The settings on record: read-out: SPAK pSer373 (μM), 50% inhibition, HEK-293, n = 3. Type of assay: cell-based, human. In general terms: Immunoblotting shows a protein as a band on a membrane.
The test system of assay [3] is KCC3 pThr991. Put plainly: Immunoblot of KCC site 1 phosphorylation (KCC3 Thr991) in HEK-293 cells transfected with FLAG-KCC3. Format: cell-based, human. The settings on record: for IC50: read-out: KCC3 pThr991 (μM), 50% inhibition, HEK-293, n = 3.
The subject of assay [4] is NKCC1 pThr203/207/212. Put plainly: Immunoblot of NKCC1 p-Thr203/Thr207/Thr212 in HEK-293 cells. To be noted: read-out: NKCC1 pThr203 (μM), 50% inhibition, HEK-293, n = 3. Type of assay: cell-based, human.
Assay [5] has as its system KCC3 pThr1048. Description: Immunoblot of KCC site 2 phosphorylation (KCC3 Thr1048) in HEK-293 cells transfected with FLAG-KCC3. To be noted: read-out: KCC3 pThr1048 (μM), 50% inhibition, HEK-293, n = 3. Format: cell-based, human.
The subject of assay [6] is mouse model of ischemic stroke (tMCAO). Description: Infarct volume and hemispheric swelling (TTC) 24 h after tMCAO. To be noted: Fig 7b, individual mice. Format: in vivo.
Assay [7] has as its system SPAK pSer373. Description: Immunoblot of SPAK/OSR1 p-Ser373/Ser325 in HEK-293 cells. Format: cell-based, human. On the procedure:
(§1) Band intensities were quantitated with ImageJ software. ***p < 0.001; **p < 0.01; *p < 0.05; ns, nonsignificant [by one-way ANOVA with post hoc testing (n = 6, error bars represent the mean ± SEM)].
(§2) Thirty-six hours post transfection, cells were stimulated with either control isotonic or hypotonic medium for a period of 30 min. […] Protein concentrations were determined using the Bradford method. Cells were treated with the indicated concentrations of the SPAK/OSR1 inhibitors.

Assay [8] concerns KCC3 pThr1048. Put plainly: Immunoblot of KCC site 2 phosphorylation (KCC3 Thr1048) in HEK-293 cells transfected with FLAG-KCC3. Format: cell-based, human.
The test system of assay [9] is NKCC1 pThr203/207/212. Description: Immunoblot of NKCC1 p-Thr203/Thr207/Thr212 in HEK-293 cells. Format: cell-based, human. As to the method: as §1, §2
The mark [10] stands for this setting: Hypotonic low Cl, compound concentration 1 (unit not given).
[11] abbreviates: Hypotonic low Cl, compound concentration 3 (unit not given).
Where [12] appears, read: Hypotonic low Cl, compound concentration 10 (unit not given).
Where [13] appears, read: Isotonic control, compound concentration 1 (unit not given).
[14] abbreviates: Isotonic control, compound concentration 3 (unit not given).
The mark [15] stands for this setting: Isotonic control, compound concentration 10 (unit not given).

Several values for one entry are separate records, joined by “and”; a condition that tells them apart may be missing. Identical values can stand only once. Like-named read-outs stand apart in the source and are kept apart here.

As to `Cc1cc(C(C#N)c2ccc(Cl)cc2)c(Cl)cc1NC(=O)c1cc(I)cc(I)c1O` (stereo not drawn) [Closanel], the “WNK1 co-immunoprecipitated with SPAK (band quantification)” value was 0.416 and 0.33 and 0.3682 and 0.389 in assay [1] (10 uM); 0.353 and 0.208 and 0.256 and 0.231 in assay [1] (30 uM); 0.179 and 0.139 and 0.1611 and 0.153 in assay [1] (100 uM); 0.036 and 0.031 and 0.0232 and 0.027 in assay [1] (1000 uM).
Regarding `Cc1cc(C(C#N)c2ccc(Cl)cc2)c(Cl)cc1NC(=O)c1cccc(O)c1O` (stereo not drawn) [Compound 1i], the IC50 in assay [2] (Iso (isotonic)), in assay [2] (hypo (hypotonic)), in assay [3] (Iso (isotonic)), in [3] (hypo (hypotonic)), in assay [4] (Iso (isotonic)) and in assay [4] (hypo (hypotonic)) was above 10 µM throughout. For the same compound, the IC50 in [5] (Iso (isotonic)) and in [5] (hypo (hypotonic)) was above 10 µM in each case.
With `Cc1cc(C(C#N)c2ccc(Cl)cc2)c(Cl)cc1NC(=O)c1ccccc1[N+](=O)[O-]` (stereo not drawn) [Compound 1e], the IC50 in assay [2] (Iso (isotonic)), in [2] (hypo (hypotonic)), in assay [3] (Iso (isotonic)), in assay [3] (hypo (hypotonic)), in assay [4] (Iso (isotonic)) and in assay [4] (hypo (hypotonic)) was above 10 µM throughout. The IC50 in assay [5] (Iso (isotonic)) and in assay [5] (hypo (hypotonic)) was above 10 µM in each case.
For the compound `COc1ccc(Cl)cc1C(=O)Nc1cc(Cl)c(C(C#N)c2ccc(Cl)cc2)cc1C` (stereo not drawn) [Compound 1j], the IC50 in assay [2] (Iso (isotonic)), in assay [2] (hypo (hypotonic)), in assay [3] (Iso (isotonic)), in [3] (hypo (hypotonic)), in assay [4] (Iso (isotonic)) and in assay [4] (hypo (hypotonic)) was above 10 µM each time. The IC50 in [5] (Iso (isotonic)) and in assay [5] (hypo (hypotonic)) was above 10 µM throughout.
`Cc1cc(C(C#N)c2ccc(Cl)cc2)c(Cl)cc1NC(=O)c1cc(Cl)ccc1O` (stereo not drawn) [ZT]: in assay [6] (group ZT 2.5), the “Hemisphere swelling (%)” value was 11.06% and 15.88% and 13.11% and 15.27% and 16.5% and 21.75%; the “Infarct volume (mm3)” value is 29.36 mm3 and 90.65 mm3 and 33.9 mm3 and 61.9 mm3 and 46.64 mm3 and 99.8 mm3. For the same compound, in [6] (group ZT 5.0), the “Hemisphere swelling (%)” value is 16.2% and 16.76% and 19.99% and 9.25% and 8.47% and 7.57% and 9.24% and 4.63% and 10.39% and 8.48% and 13.8% and 7.91%; the “Infarct volume (mm3)” value is 48.74 mm3 and 86.87 mm3 and 49.93 mm3 and 31.43 mm3 and 42.1 mm3 and 27.75 mm3 and 25.29 mm3 and 24.11 mm3 and 27.25 mm3 and 37.2 mm3 and 90 mm3 and 33.39 mm3.
Regarding `Cc1cc(C(C#N)c2ccc(Cl)cc2)c(Cl)cc1NC(=O)c1cc(Cl)cc(Cl)c1O` (stereo not drawn) [ZT-1f], the “pSer373 / SPAK” value in assay [7] (setting [10]) was 0.49 and 0.51 and 0.58 and 0.552; in [7] (setting [11]), 0.255 and 0.215 and 0.1963 and 0.207; in assay [7] (setting [12]), 0.059 and 0.041 and 0.05 and 0.046; in assay [7] (setting [13]), 0.221 and 0.274 and 0.241 and 0.291; in assay [7] (setting [14]), 0.101 and 0.09 and 0.083 and 0.121; in [7] (setting [15]), 0.031 and 0.026 and 0.028. The “Site-1 phospho / KCC” value in assay [3] (setting [10]) was 0.591 and 0.61 and 0.578 and 0.662; in [3] (setting [11]), 0.501 and 0.522 and 0.538 and 0.551; in assay [3] (setting [12]) it was 0.304 and 0.287 and 0.249 and 0.4315; in assay [3] (setting [13]) it was 0.52 and 0.572 and 0.465 and 0.481; in [3] (setting [14]), 0.476 and 0.441 and 0.483 and 0.501; in assay [3] (setting [15]), 0.412 and 0.386 and 0.366 and 0.392. The “Site-2 phospho / KCC” value in [8] (setting [10]) is 0.535 and 0.483 and 0.512 and 0.467; in assay [8] (setting [11]), 0.341 and 0.264 and 0.311 and 0.293; in assay [8] (setting [12]), 0.109 and 0.131 and 0.09 and 0.115; in assay [8] (setting [13]), 0.486 and 0.369 and 0.411 and 0.451; in [8] (setting [14]) it was 0.191 and 0.175 and 0.185 and 0.163; in assay [8] (setting [15]), 0.073 and 0.097 and 0.081 and 0.092. Besides, the “pThrNKCC1 / NKCC1” value in assay [9] (setting [10]) was 0.511 and 0.43 and 0.48 and 0.55; in [9] (setting [11]), 0.144 and 0.139 and 0.1273 and 0.131; in [9] (setting [12]) it was 0.029 and 0.031 and 0.039 and 0.026; in assay [9] (setting [13]) it was 0.187 and 0.123 and 0.15 and 0.173; in [9] (setting [15]), 0.009 and 0.011 and 0.016 and 0.012.
As to `Cc1cc(C(C#N)c2ccc(Cl)cc2)c(Cl)cc1NC(=O)c1ccccc1O` (stereo not drawn) [ZT-1b], the “pSer373 / SPAK” value in assay [7] (setting [10]) is 0.301 and 0.286 and 0.291 and 0.316; in assay [7] (setting [11]), 0.183 and 0.156 and 0.163 and 0.175; in assay [7] (setting [12]), 0.078 and 0.061 and 0.055 and 0.065; in [7] (setting [13]) it was 0.103 and 0.127 and 0.137 and 0.117; in assay [7] (setting [14]) it was 0.087 and 0.09 and 0.06 and 0.076; in assay [7] (setting [15]), 0.055 and 0.039 and 0.041 and 0.047. Further, the “Site-1 phospho / KCC” value in [3] (setting [10]) is 0.297 and 0.278 and 0.267 and 0.28; in assay [3] (setting [11]), 0.255 and 0.247 and 0.261 and 0.237; in assay [3] (setting [12]) it was 0.022 and 0.031 and 0.029 and 0.035; in [3] (setting [13]), 0.198 and 0.201 and 0.187 and 0.21; in [3] (setting [14]), 0.167 and 0.17 and 0.155 and 0.16; in assay [3] (setting [15]) it was 0.095 and 0.121 and 0.114 and 0.104. In addition, the “Site-2 phospho / KCC” value was 0.289 and 0.263 and 0.271 and 0.25 in assay [8] (setting [10]); 0.156 and 0.183 and 0.172 and 0.162 in assay [8] (setting [11]); 0.033 and 0.041 and 0.022 and 0.031 in assay [8] (setting [12]); 0.184 and 0.212 and 0.196 and 0.205 in [8] (setting [13]); 0.112 and 0.132 and 0.126 and 0.115 in [8] (setting [14]); 0.042 and 0.039 and 0.061 and 0.053 in assay [8] (setting [15]). Also, the “pThrNKCC1 / NKCC1” value in assay [9] (setting [10]) was 0.309 and 0.287 and 0.264 and 0.27; in assay [9] (setting [11]), 0.122 and 0.114 and 0.1313 and 0.117; in assay [9] (setting [12]) it was 0.011 and 0.0109 and 0.016 and 0.013; in assay [9] (setting [13]) it was 0.127 and 0.118 and 0.126 and 0.123; in [9] (setting [14]), 0.034 and 0.041 and 0.048 and 0.043; in assay [9] (setting [15]) it was 0.009 and 0.007 and 0.005 and 0.006.
For `Cc1cc(C(C#N)c2ccc(Cl)cc2)c(Cl)cc1NC(=O)c1ccccc1S` (stereo not drawn) [ZT-1c], the “pSer373 / SPAK” value in assay [7] (setting [10]) was 0.203 and 0.196 and 0.2213 and 0.215; in assay [7] (setting [11]) it was 0.112 and 0.125 and 0.103 and 0.117; in assay [7] (setting [12]) it was 0.032 and 0.051 and 0.046 and 0.039; in [7] (setting [13]), 0.122 and 0.112 and 0.129 and 0.116; in assay [7] (setting [14]), 0.075 and 0.062 and 0.048 and 0.057; in assay [7] (setting [15]) it was 0.036 and 0.024 and 0.031 and 0.029. Also, the “Site-1 phospho / KCC” value is 1.35 and 1.471 and 1.65 and 1.51 in [3] (setting [10]); 1.55 and 1.21 and 1.48 and 1.3 in assay [3] (setting [11]); 1.012 and 0.998 and 0.867 and 0.921 in [3] (setting [12]); 1.231 and 1.321 and 1.543 and 1.43 in assay [3] (setting [13]); 1.091 and 0.991 and 0.86 and 0.91 in assay [3] (setting [14]); 0.761 and 0.69 and 0.81 and 0.61 in assay [3] (setting [15]). Besides, the “Site-2 phospho / KCC” value in assay [8] (setting [10]) is 0.497 and 0.455 and 0.548 and 0.508; in [8] (setting [11]), 0.209 and 0.276 and 0.192 and 0.234; in assay [8] (setting [12]), 0.048 and 0.058 and 0.04 and 0.032; in assay [8] (setting [13]), 0.476 and 0.401 and 0.516 and 0.551; in [8] (setting [14]), 0.214 and 0.265 and 0.187 and 0.198; in assay [8] (setting [15]), 0.065 and 0.051 and 0.044 and 0.058. Moreover, the “pThrNKCC1 / NKCC1” value is 1.123 and 1.265 and 1.316 and 1.19 in [9] (setting [10]); 0.587 and 0.521 and 0.402 and 0.467 in assay [9] (setting [11]); 0.215 and 0.209 and 0.187 and 0.193 in [9] (setting [12]); 0.43 and 0.561 and 0.501 and 0.592 in assay [9] (setting [13]); 0.05 and 0.036 and 0.066 and 0.049 in assay [9] (setting [15]).
